For 11 compounds, IC50 and inhibition results are on record in US20120157471A1, “BENZIMIDAZOLE DERIVATIVES” (PFIZER INC., priority 2009, published 2012).

In one assay the test system is Gli-Luc/MEF cells (Smo). As to the kind of experiment: Gli-Luc/MEF assay (Shh-stimulated luciferase reporter under the Gli response element). Type of assay: cell-based, mouse. The conditions noted are these: Mus musculus, MEF, 48 h. A digest of the protocol:
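IC50 derived from luminescence (Bright-Glo) after 48 h at 37° C, 5% CO2, with compound at […] (3-fold dilutions) added together with mouse Shh at 2 μg/mL final. Cells: MEFs from Gli-Luc transgenic mice.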

Assay [1] addresses T1, human Smo (amino acids 181-787) (Homo sapiens, UniProt Q99835).
T1 construct: expressed in transfected cells; membrane preparation
The assay can be described thus: Smo radioligand competition binding assay (displacement of 3H-PF-03451358 from HEK293 membranes). The conditions noted are these: for inhibition at 0.05 µM: 0.05 μM test compound, displacement of 3H-PF-03451358, read-out: SMO % inh. @ 0.05 μM; for IC50: radioligand competition binding. In a few lines:
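Displacement of 3 nM tritiated PF-03451358 measured by filtration and scintillation counting after 2 h at room temperature, using 40 μg/well HEK293 membranes bearing cell-surface Smo 181-787, pH 7.5 buffer. Specific binding defined against 30 μM unlabelled ligand; IC50 via variable-slope sigmoidal fit.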

T1 sequence (Q99835 181-787): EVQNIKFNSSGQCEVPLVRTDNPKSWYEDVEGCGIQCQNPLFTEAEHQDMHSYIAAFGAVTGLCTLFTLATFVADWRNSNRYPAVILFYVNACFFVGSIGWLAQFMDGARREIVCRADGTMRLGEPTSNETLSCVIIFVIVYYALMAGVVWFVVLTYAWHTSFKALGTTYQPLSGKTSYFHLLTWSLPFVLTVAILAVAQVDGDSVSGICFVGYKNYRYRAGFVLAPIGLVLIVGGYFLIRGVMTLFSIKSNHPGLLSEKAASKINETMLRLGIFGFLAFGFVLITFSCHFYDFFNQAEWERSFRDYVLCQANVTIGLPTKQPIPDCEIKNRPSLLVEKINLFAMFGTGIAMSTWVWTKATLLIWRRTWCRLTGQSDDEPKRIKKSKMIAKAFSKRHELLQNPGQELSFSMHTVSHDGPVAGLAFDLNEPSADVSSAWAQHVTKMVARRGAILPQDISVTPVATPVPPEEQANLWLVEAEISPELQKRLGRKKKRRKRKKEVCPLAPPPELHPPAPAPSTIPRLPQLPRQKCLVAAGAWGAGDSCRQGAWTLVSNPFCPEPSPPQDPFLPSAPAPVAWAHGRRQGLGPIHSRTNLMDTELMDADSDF

`C[C@@H]1CN(S(C)(=O)=O)CCN1c1cc(-c2nc3ccccc3n2C)c(Cl)cn1` [Example A-166, 2-{5-chloro-2-[(2R)-2-methyl-4-(methylsulfonyl)piperazin-1-yl]pyridin-4-yl}-1-methyl-1H-benzimidazole] had a half-inhibitory concentration (IC50) with Gli-Luc/MEF cells (Smo) of 4 nM. The inhibition at 0.05 µM in assay [1] came out at 102%.
`CC(=O)N1CCN(c2cc(-c3nc4ccccc4n3C)c(Cl)cn2)[C@H](C)C1` [Example A-168, 2-{2-[(2R)-4-acetyl-2-methylpiperazin-1-yl]-5-chloropyridin-4-yl}-1-methyl-1H-benzimidazole]: the half-inhibitory concentration (IC50) was 7 nM in the assay with Gli-Luc/MEF cells (Smo) and 8 nM in assay [1]. For the same compound, the inhibition at 0.05 µM in assay [1] came out at 97%.
On the same counts, the results for `Cn1c(-c2cc(N3CCC(O)CC3)ncc2Cl)nc2cccnc21` [Example A-169, 1-[5-chloro-4-(3-methyl-3H-imidazo[4,5-b]pyridin-2-yl)pyridin-2-yl]piperidin-4-ol] are 138 nM, 219 nM and 76%.
On the same counts, the results for `Cn1c(-c2cc(N3CCN(C=O)CC3)ncc2Cl)nc2cccnc21` [Example A-170, 4-[5-chloro-4-(3-methyl-3H-imidazo[4,5-b]pyridin-2-yl)pyridin-2-yl]piperazine-1-carbaldehyde] are 118 nM, 140 nM and 81%.
For `CC1C(=O)NCCN1c1cc(-c2nc3ccccc3n2C)c(Cl)cn1` (centres unmarked) [Example A-171, 4-[5-chloro-4-(1-methyl-1H-benzimidazol-2-yl)pyridin-2-yl]-3-methylpiperazin-2-one] the same measures were 28 nM, 31 nM and 97%.
`Cn1c(-c2cc(NCCO)ncc2Cl)nc2ccccc21` [Example A-172, 2-{[5-chloro-4-(1-methyl-1H-benzimidazol-2-yl)pyridin-2-yl]amino}ethanol] gave an IC50 in the assay on Gli-Luc/MEF cells (Smo) of 52 nM. Further, in assay [1], the inhibition at 0.05 µM was 80% and the IC50 stood at 107 nM.
For `Cn1c(-c2cc(N3CCc4[nH]ncc4C3)ncc2Cl)nc2ccccc21` [Example A-173, 5-[5-chloro-4-(1-methyl-1H-benzimidazol-2-yl)pyridin-2-yl]-4,5,6,7-tetrahydro-1H-pyrazolo[4,3-c]pyridine] the same measures were 24 nM, 83% and 108 nM.
With `Cn1c(-c2cc(N3CCNC(=O)C3)ncc2Cl)nc2ccccc21` [Example A-174, 4-[5-chloro-4-(1-methyl-1H-benzimidazol-2-yl)pyridin-2-yl]piperazin-2-one], 39 nM corresponded to half-maximal inhibition in the assay on Gli-Luc/MEF cells (Smo) (IC50). For the same compound, in assay [1], the inhibition at 0.05 µM was determined as 86% and the concentration for half-maximal inhibition (IC50) turned out to be 39 nM.
In the case of `Cn1c(-c2cc(N3C[C@H]4CC[C@@H](C3)N4S(C)(=O)=O)ncc2Cl)nc2ccccc21` [Example A-175, 2-{5-chloro-2-[(1R,5S)-8-(methylsulfonyl)-3,8-diazabicyclo[3.2.1]oct-3-yl]pyridin-4-yl}-1-methyl-1H-benzimidazole], in the assay with Gli-Luc/MEF cells (Smo), 9 nM corresponded to half-maximal inhibition (IC50). Besides, in assay [1], the inhibition at 0.05 µM was found to be 97% and the IC50 stood at 17 nM.
`CNC(=O)NC1CCN(c2cc(-c3nc4ccccc4n3C)c(Cl)cn2)C1` (centres unmarked) [Example A-176, 1-{1-[5-chloro-4-(1-methyl-1H-benzimidazol-2-yl)pyridin-2-yl]pyrrolidin-3-yl}-3-methylurea] gave an IC50 in the assay with Gli-Luc/MEF cells (Smo) of 22 nM. Besides, in assay [1], the inhibition at 0.05 µM stood at 82% and the half-inhibitory concentration (IC50) was determined as 84 nM.
On the same counts, the results for `CC(=O)N(C)C1CN(c2cc(-c3nc4ccccc4n3C)c(Cl)cn2)C1` [Example A-177, N-{1-[5-chloro-4-(1-methyl-1H-benzimidazol-2-yl)pyridin-2-yl]azetidin-3-yl}-N-methylacetamide] are 38 nM, 73% and 174 nM.
